Ends that are not written are not given here.
Legend:
Type in all cases: biochemical
C1s = molecular target: T1, C1s (Homo sapiens, UniProt P09871); test: C1s assay by inhibition of fluid phase C4 activation; details: Table X; μM concentration at which protease was inhibited 50%; read-out: IC50 C1S
T1 construct: prepared from pooled human plasma; from tissue; host or cells: pooled human plasma
T1 sequence (P09871 16-688): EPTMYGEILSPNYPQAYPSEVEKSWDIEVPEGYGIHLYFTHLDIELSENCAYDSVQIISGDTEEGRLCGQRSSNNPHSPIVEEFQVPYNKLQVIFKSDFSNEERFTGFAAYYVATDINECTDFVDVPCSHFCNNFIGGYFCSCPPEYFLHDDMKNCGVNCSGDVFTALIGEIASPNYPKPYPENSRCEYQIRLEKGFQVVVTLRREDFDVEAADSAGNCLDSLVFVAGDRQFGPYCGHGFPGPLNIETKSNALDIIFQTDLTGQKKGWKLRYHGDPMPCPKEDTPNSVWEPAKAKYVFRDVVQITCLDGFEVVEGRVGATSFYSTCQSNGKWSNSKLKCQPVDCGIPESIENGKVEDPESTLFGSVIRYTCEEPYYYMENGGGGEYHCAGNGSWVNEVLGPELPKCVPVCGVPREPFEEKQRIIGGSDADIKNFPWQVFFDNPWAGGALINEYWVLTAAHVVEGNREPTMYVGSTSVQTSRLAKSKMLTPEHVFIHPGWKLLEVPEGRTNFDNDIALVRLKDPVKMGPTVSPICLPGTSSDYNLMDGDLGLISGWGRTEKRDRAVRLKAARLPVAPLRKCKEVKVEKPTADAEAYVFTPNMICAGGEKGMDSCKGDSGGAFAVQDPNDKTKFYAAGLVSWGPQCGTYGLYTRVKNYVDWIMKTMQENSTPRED
Protocol: (§1) Highly purified C3, C4, Factor D, Factor B, and C1s were prepared from pooled human plasma. Factors B and C4 were radiolabeled by periodate oxidation of sialic acid residues, followed by reduction with tritiated sodium borohydride. In a representative experiment, a solution of 1.2 mg of factor B in 1.8 ml of PBS was treated with 70 μl of 0.1M NaIO4. After 10 min incubation on ice, excess reagent was removed by filtration over "SEPHADEX®" which is a matrix for gel chromatography (1.0 cm×20 cm). To the protein pool was added 60 μl of NaB[^3 H]4 solution and incubated for 30 min on ice. Labeled protein was separated from excess reagent by desalting or dialysis. Human C4 was radiolabeled in the same manner. Radiolabeled proteins were stored at -70° C. in PBS. The specific radioactivity of ^3 H factor B was about 10,000 CPM/μg and that of ^3 H-C4 was 5,000 CPM/μg.
The cleavage of C4 was studied by incubating 10 μg of tritiated C4 with 3-5 ng of C1s at 37° C. for 30 min in 100 μl of PBS (pH 7.10) containing different concentrations of inhibitor. The reaction was stopped by the addition of 2-mercaptoethanol. The extent of cleavage was analyzed by SDS-polyacrylamide gel electrophoresis. The stained bands corresponding to C4α and C4α' were cut out and sliced. The radioactivity of the fragments was measured by liquid scintillation counting. The percent cleavage of the reaction was calculated as follows: [formula]
(§2) Electrophoresis was carried out under reducing conditions in the Laemmli system using slab gel of 8% polyacrylamide. The gels were stained and destained (Fairbanks et al. Biochemistry (1971) 10:2606).
(§3) The percent inhibition of the reaction was calculated according to the following relationship: [formula]
(§4) A: % cleavage without inhibitor
(§5) B: % cleavage with inhibitor
(§6) The concentration inducing 50% inhibition was obtained by plotting the percent inhibition on a probability graph (National Blank Book Co., No. 12-083) on the ordinate and the log of the inhibitor concentration on the abscissa. From this graph, a 50% inhibition concentration IC50 was obtained and this value was employed to express the activity.

Factor D = molecular target: T2, Factor D (Homo sapiens, UniProt P00746); test: Factor D assay by inhibition of fluid phase Factor B activation; details: Table X; μM concentration at which protease was inhibited 50%; read-out: IC50 D
T2 construct: prepared from pooled human plasma; from tissue; host or cells: pooled human plasma
T2 sequence (P00746 26-253): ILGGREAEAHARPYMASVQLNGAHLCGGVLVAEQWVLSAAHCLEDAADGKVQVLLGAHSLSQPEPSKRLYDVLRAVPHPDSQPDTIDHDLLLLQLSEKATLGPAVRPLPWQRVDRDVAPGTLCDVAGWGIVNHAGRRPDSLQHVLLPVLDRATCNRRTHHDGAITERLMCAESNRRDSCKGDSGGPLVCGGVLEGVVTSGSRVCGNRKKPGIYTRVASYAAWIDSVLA
Protocol: as §1
The effect of the peptides on Factor D-dependent cleavage of factor B was studied by incubating 3.5 μg of Factor B, 1.5 μg of C3(H2 O) and 0.2 μl of Factor D at 37° C. for 60 min in Mg-PBS containing different concentrations of inhibitor. Uncleaved Factor B and its fragments, Ba and Bb, were first separated by SDS-PAGE and analyzed as described above. The percent cleavage of the reaction was calculated as follows: [formula]
B=radioactivity (CPM) of uncleaved factor B
Bb=radioactivity (CPM) of fragment Bb
Ba=radioactivity (CPM) of fragment Ba
as §2, §3, §4, §5, §6

tPA = molecular target: T3, tPA (Homo sapiens, UniProt P00750); test: Tissue plasminogen activator (tPA) assay (S2288); details: 10 μM peptide
T3 construct: Enzyme tPA, 2 chain activity standard; purchased American Diagnostica, Inc. 116
T3 sequence (P00750 311-562 limits assumed): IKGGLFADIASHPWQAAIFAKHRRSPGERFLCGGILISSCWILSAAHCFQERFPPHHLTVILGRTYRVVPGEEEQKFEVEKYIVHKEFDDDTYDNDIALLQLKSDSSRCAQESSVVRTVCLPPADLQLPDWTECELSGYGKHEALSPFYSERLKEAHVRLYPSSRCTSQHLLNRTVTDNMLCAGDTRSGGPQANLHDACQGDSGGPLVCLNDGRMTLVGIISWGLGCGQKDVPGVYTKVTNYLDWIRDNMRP
T3 sequence (P00750 36-310 partner limits assumed): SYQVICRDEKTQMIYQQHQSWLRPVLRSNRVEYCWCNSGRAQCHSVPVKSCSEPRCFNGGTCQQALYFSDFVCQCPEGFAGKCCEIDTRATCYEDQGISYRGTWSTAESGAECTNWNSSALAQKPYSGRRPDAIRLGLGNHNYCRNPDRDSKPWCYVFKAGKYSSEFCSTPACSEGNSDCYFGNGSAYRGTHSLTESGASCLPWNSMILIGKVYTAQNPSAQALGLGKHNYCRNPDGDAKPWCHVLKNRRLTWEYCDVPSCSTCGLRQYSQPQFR
Protocol: Substrate H-D-Ile-Pro-Arg-pNA·2HCl (S2288, Kabi), 10 mM in deionized water; may be frozen for future use.
Buffer 50 mM Tris·HCl, pH 7.4 containing 0.01% Tween 80.
Inhibitor […] in deionized water.
Enzyme tPA, 2 chain activity standard (Catalog #116, American Diagnostica, Inc.); stock solution=10 μL of original solution per mL in buffer.
Mix 200 μL of buffer, 200 μL of deionized water (control) or inhibitor solution and 40 μL of substrate solution. Incubate for 2 min. at 37° C., add 40 μL of enzyme, mix, and measure rate spectrophotometrically at 405 nm for about 5 min. Inhibition (%) is calculated in the same manner as in previous assays.

HUMAN SPUTUM ELASTASE = molecular target: T4, HUMAN SPUTUM ELASTASE (Homo sapiens, UniProt P08246); test: Elastase assay (MeO-Suc-Ala-Pro-Val-pNA); details: 200 μM peptide
T4 construct: HUMAN SPUTUM ELASTASE; purchased Elastin Products Company SE563; host or cells: human sputum (from the product name)
T4 sequence (P08246 30-267): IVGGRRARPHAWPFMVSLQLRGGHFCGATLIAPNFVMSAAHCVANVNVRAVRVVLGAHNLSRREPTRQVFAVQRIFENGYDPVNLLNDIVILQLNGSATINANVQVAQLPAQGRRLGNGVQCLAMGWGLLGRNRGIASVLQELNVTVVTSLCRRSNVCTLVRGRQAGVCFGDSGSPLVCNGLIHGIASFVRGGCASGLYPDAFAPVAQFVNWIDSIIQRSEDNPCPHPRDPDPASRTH
Protocol: Enzyme used is "HUMAN SPUTUM ELASTASE®" which is an enzyme which is the target protease for α1 antitrypsin from Elastin Products Company, Catalog No. SE563, lot 85071, 875 units/mg as determined by supplier with N-Suc-Ala-Ala-Ala-pNA; prepared at 0.2 mg/mL in 0.1M Tris·HCl, pH 8.8 at 37 degrees C. An amount of enzyme is used to give approximately 0.1 change in Absorbance/min; which in this assay was 1 μg.
The substrate is MeO-Suc-Ala-Pro-Val-pNA, Sigma Catalog No. M-4765. About 50 mg of the substrate is dissolved in 1 ml of 1-methyl-2-pyrrolidinone and diluted to 33 mls. with 0.1M Tris-HCl, pH 7.5, containing 0.5M NaCl, and 0.01 wt % sodium azide.
Peptide solutions are prepared at 500 μM, using 1.5% of the final volume of DMSO first and diluting with distilled water (DW) or 0.1M Tris.HCl, pH 8.8 at 37 degrees C. [formula]

Cathepsin G = molecular target: T5, Cathepsin G (Homo sapiens, UniProt P08311); test: Cathepsin G assay (Suc-Ala-Ala-Pro-Phe-pNA, 410 nm); details: 200 μM peptide (head of Table IX)
T5 construct: purchased Elastin Products Company (EPC) SG-45
T5 sequence (P08311 21-255): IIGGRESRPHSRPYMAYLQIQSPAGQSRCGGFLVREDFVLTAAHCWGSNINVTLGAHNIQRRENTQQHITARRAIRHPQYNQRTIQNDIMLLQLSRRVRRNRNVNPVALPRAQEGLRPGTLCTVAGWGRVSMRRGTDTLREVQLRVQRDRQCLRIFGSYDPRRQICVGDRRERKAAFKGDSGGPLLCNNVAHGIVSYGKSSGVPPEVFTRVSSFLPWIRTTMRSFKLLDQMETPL
Protocol: Reference: Elastin Products Company (EPC) technical data sheet, cathepsin G, No. SG-45.
Method: Spectrophotometric rate determination
A) Buffer; 0.1M Tris, pH 7.5 at 25° C.
B) Substrate; 60 mM Suc-Ala-Ala-Pro-Phe-pNA obtained from Sigma Chemical Company. Solution prepared by dissolving 50 mg substrate in 1.3 ml of 1-methyl-2-pyrrolidinone. Stored at 5° C.
C) Peptide Inhibitors; 200 μM HCl salt. Depending on peptide solubility, dissolved in buffer or DMSO and then buffer added for a final concentration of 10% DMSO.
D) Enzyme; Cathepsin G, EPC SG-45, lot 85117 used for all assays, 0.0077 mg protein per mg solid determined by supplier by Bradford method. Enzyme was dissolved in buffer at a concentration of approx. 5 mg/ml solid. Solution stored on ice, used within 2 hours.
Pipetted the following into semi-micro quartz cuvettes: 0.3 ml buffer, 0.15 ml peptide solution and 0.5 ml of substrate solution. Equilibrate for 5 min. at 25° C., then add 0.05 ml of enzyme solution and monitor the release of pNA spectrophotometrically at 410 nm for at least 3 minutes. The controls contain either 0.45 ml of buffer or 20% DMSO in buffer (for a final concentration of 10% DMSO).
The rate (O.D./min) is obtained as an average over 3 minutes. [formula]

Thrombin = Thrombin (Homo sapiens, UniProt P00734); test: Coagulation inhibition assay, thrombin (fibrinogen clotting end point); details: 40 μM peptide
Protocol: Inhibitory activity of subject peptides toward thrombin and Factor Xa were done in the following manner. Mix 100 μL Thrombin (3.125 units/ml, 1.125 μg/ml) in TAB with […] Peptide in TAB and incubate for 1 minute at 37° C. Add 50 μL Fibrinogen (2 mg/ml)and measure clotting end point (in seconds) in a Fibrometer (BBL) TAB=Thrombin Assay Buffer: 0.15M NaCl, 6.6 gm/L PEG-6000, 0.01M Imidazole, 0.01 CaCl2, pH 7.4

Sequence: LQRALEILRVTFKANRPFLVFI [Peptide 14]
- IC50 (C1s): 9 µM
- IC50 (Factor D): 8 µM

Sequence: PFLVFILPNIFLGRVAN [Peptide 43]
- inhibition at 10 µM (tPA): 7%

Sequence: RPFLVFILPGIFLGRVANP [Peptide 38]
- inhibition at 10 µM (tPA): 59%

Sequence: RPFLVFILPNIFLGRVAN [Peptide 42]
- inhibition at 10 µM (tPA): 44%

Sequence: RPFLVFILPNIFLGRVANP [Peptide 39]
- inhibition at 10 µM (tPA): 55%

Sequence: RPFLVFILPNIFLRVANP [Peptide 44]
- inhibition at 10 µM (tPA): 55%

Sequence: RPFLVFIRPGDIFLGRVANP [Peptide 40]
- inhibition at 10 µM (tPA): 39%

Sequence: RPFLVFIRPNDFLGRVANP [Peptide 41]
- inhibition at 10 µM (tPA): 8%

Sequence: RPFLVFLPNILRVANP [Peptide 46]
- inhibition at 10 µM (tPA): 0%

Sequence: TLLSALVETPPEVKFKNPFVFLI [Peptide 6]
- Elastase Inhibition (HUMAN SPUTUM ELASTASE): 17%
- Cathepsin G Inhibition (Cathepsin G): 0%

Sequence: TLLSALVETRTIVKFNKPFVFLLIEQNTKSPLFLGKVVNPTQK [Peptide 26]
- Cathepsin G Inhibition (Cathepsin G): 0%

Sequence: TLLSALVETRTIVRFNRPFLLII [Peptide 10]
- Elastase Inhibition (HUMAN SPUTUM ELASTASE): 0%
- Cathepsin G Inhibition (Cathepsin G): 65%

Sequence: TLLSALVETRTIVRFNRPFLLIIVPTDTQNIFFLSKVTNPSKPR [Peptide 30]
- Cathepsin G Inhibition (Cathepsin G): 38%

Sequence: TLLSALVETRVTFKANRPFLVFI [Peptide 9]
- Cathepsin G Inhibition (Cathepsin G): 41%
- Thrombin inhibition (Thrombin): 32%

From US5157019A, “Serine protease inhibitors” (Monsanto Company, priority 1991, dated 1992)
